Source: patent US4965280A, “Antifungal carbinols” (E. I. Du Pont de Nemours and Company, priority 1989, dated 1990)
Values after ≈ are worked out from the molar mass of the structure shown. Like-named read-outs stand apart in the source and are kept apart here.

Tests used:
Venturia inaequalis = assay: Example A apple scab; type: in vivo; settings: 100 PPM, read-out: disease control rating, Ex. A
Method in brief: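 Test compounds were dissolved in acetone (6% of final volume) and suspended at 100 or 20 ppm in purified water containing 250 ppm of the surfactant TREM 014 (polyhydric alcohol esters). Apple seedlings were sprayed with this suspension to the point of run-off.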

[1] = tested on: Cercosporidium personatum; assay: Example B Peanut Late Leafspot; type: in vivo; settings: Nothopassalora personata; 100 PPM; read-out: disease control rating, Ex. B
Method in brief: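 Compounds were dissolved in acetone (6% of final volume) and suspended at 100 or 20 ppm in purified water containing 250 ppm TREM 014 surfactant (polyhydric alcohol esters). The suspension was sprayed to run-off on peanut seedlings.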

Botrytis cinerea = assay: Example C bean grey mold; type: in vivo; settings: Botrytis cinerea, 24 h, 100 PPM; read-out: disease control rating, Ex. C
Method in brief: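 Test compounds were taken up in acetone (6% of final volume) and suspended at 100 or 20 ppm in purified water containing 250 ppm TREM 014 surfactant (polyhydric alcohol esters). Broad bean seedlings were sprayed with this suspension until run-off.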

[2] = tested on: Erysiphe graminis f. sp. tritici; assay: Example D wheat powdery mildew; type: in vivo; settings: Blumeria graminis, 144 h; 100 PPM; read-out: disease control rating, Ex. D
Method in brief: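 Compounds were dissolved in acetone (6% of final volume), then suspended at 100 or 20 ppm in purified water containing 250 ppm TREM 014 surfactant. Wheat seedlings were sprayed with this suspension to run-off.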

Pyricularia oryzae = assay: whole plant or invertebrate; type: in vivo; settings: Pyricularia oryzae, 120 h, read-out: disease control rating, Ex. E, 100 PPM
Puccinia recondita = assay: Example G wheat leaf rust; type: in vivo; settings: 100 PPM, read-out: disease control rating, Ex. G
Phytophthora infestans = assay: whole plant or invertebrate; type: in vivo; settings: Phytophthora infestans, in Solanum lycopersicum, read-out: disease control rating, Ex. H, 100 PPM
Plasmorpara viticola = assay: Example I grape downy mildew; type: in vivo; settings: read-out: disease control rating, Ex. I
Method in brief: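 Compounds were dissolved in acetone (6% of final volume) and suspended at 100 or 20 ppm in purified water with 250 ppm TREM 014 surfactant (polyhydric alcohol esters). Grape seedlings were sprayed with this suspension to run-off.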

Pythium aphanadermatum = assay: Example J cucumber damping off; type: in vivo; settings: Pythium, 336 h; 5 kg/ha; read-out: disease control rating, Ex. J
Method in brief: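 Seeds and soil were inoculated with a mix of sand, cereal and Pythium aphanadermatum mycelium, the fungus responsible for cucumber damping off. They were kept in a growth chamber at 30° C. for 14 days, and disease was then rated to assess control.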

Rhizoctonia solani [3] = assay: Example K cotton blight; type: in vivo; settings: 336 h, 5 kg/ha, read-out: disease control rating, Ex. K
Description: […] Seeds and soil were then inoculated with a mixture of sand, cereal and mycelium of the fungus Rhizoctonia solani, causal agent of cotton blight, and incubated in a growth chamber at 30° C. for 14 days. Disease ratings were then made.

[4] = tested on: Fusarium oxysporum f. sp. cucumerinum; assay: Example L cucumber wilt; type: in vivo; settings: 336 h, 5 kg/ha, read-out: disease control rating, Ex. L
Description: […] Seeds and soil were then inoculated with a mixture of sand, cereal and mycelium of the fungus Fusarium oxysporum f. sp. cucumerinum, causal agent of cucumber wilt, and incubated in a growth chamber at 30° C. for 14 days. Disease ratings were then made.

Sclerotium rolfsii = assay: Example M southern blight; type: in vivo; settings: Agroathelia rolfsii, 336 h; 5 kg/ha; read-out: disease control rating, Ex. M
Description: […] Seeds and soil were then inoculated with a mixture of sand, cereal and mycelium of the fungus Sclerotium rolfsii, causal agent of sourthern blight, and incubated in a growth chamber at 30° C. for 14 days. Disease ratings were then made.

[5] = tested on: Candida albicans ATCC 11651; assay: In vitro antifungal MIC, microtiter broth dilution; settings: Candida albicans, ATCC11651, 24 h, read-out: MIC values, C. albicans, 30°, 24 hours
[6] = tested on: Aspergillus fumigatus ATCC 28214; assay: In vitro antifungal MIC, microtiter broth dilution; settings: Aspergillus fumigatus, ATCC28214, 24 h, read-out: MIC values, A. fumigatus, 30°, 24 hours
Rhizoctonia solani [7] = assay: Example F rice sheath blight; type: in vivo; settings: Rhizoctonia solani, 144 h, 100 PPM; read-out: disease control rating, Ex. F
Method in brief: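 Compounds, dissolved in acetone at 6% of final volume, were suspended at 100 or 20 ppm in purified water with 250 ppm polyhydric alcohol ester surfactant (TREM 014). Rice seedlings were sprayed with this suspension to run-off.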

[8] = tested on: Candida albicans ATCC 11651; assay: In vivo systemic Candida infection in mice, primary assay; set-up: species or system Candida albicans; CF-1 female mice; settings: Candida albicans, 150 mg/kg per day, read-out: % Survival
Method in brief: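 CF-1 female mice (20 g, 10 per group) were infected IV with 0.2 ml of 1×10^7/ml C. albicans ATCC 11651, then given test compound subcutaneously at 50 or 150 mg/kg/day at 1 and 6 h post-infection and once daily for three more days. Survival was followed for 21 days against infected untreated mice; ≥70% protection at 14 days was scored active.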

SMILES | pest or weed control at 100 ppm (Venturia inaequalis) [%] | pest or weed control at 100 ppm [1] [%] | pest or weed control at 100 ppm (Botrytis cinerea) [%] | pest or weed control at 100 ppm [2] [%] | pest or weed control at 100 ppm (Pyricularia oryzae) [%] | pest or weed control at 100 ppm (Puccinia recondita) [%] | pest or weed control at 100 ppm (Phytophthora infestans) [%] | pest or weed control at 100 ppm (Plasmorpara viticola) [%] | pest or weed control at 5000 g/ha (Pythium aphanadermatum) [%] | pest or weed control at 5000 g/ha (Rhizoctonia solani [3]) [%] | pest or weed control at 5000 g/ha [4] [%] | pest or weed control at 5000 g/ha (Sclerotium rolfsii) [%] | MIC [5] [µg/mL] | MIC [6] [µg/mL] | pest or weed control at 100 ppm (Rhizoctonia solani [7]) [%] | responders at 150 mg/kg ([8]; ATCC11651, 168 h, day 7) [%] | responders at 150 mg/kg ([8]; ATCC11651, 336 h, day 14) [%] | responders at 150 mg/kg ([8]; ATCC11651, 504 h, day 21) [%]
C=C(c1ccccc1)C(O)(Cn1cncn1)c1ccc(F)c(Cl)c1 (stereo not shown) [Example 605] | 70 | 99 | 32 | 81 | 0 | 100 | 0 | 0 | 0 | 0 | 0 | 0 | 0.2 (≈ 0.582 µM) | 100 (≈ 291 µM) |  |  |  | 
C=C(c1ccc(F)cc1)C(O)(Cn1ncnc1SCC#N)c1ccccc1F (stereo not shown) [Example 1451] | 86 | 84 | 48 | 77 | 2 | 93 | 0 | 79 | 0 | 0 | 0 | 0 | > 100 | > 100 |  |  |  | 
C=C(CO)C(O)(Cn1cncn1)c1ccc(-c2ccccc2)cc1 (stereo not shown) [Example 452] | 36 | 0 | 54 | 46 | 0 | 30 | 0 | 0 | 0 | 0 | 0 | 0 | > 100 |  | 67 |  |  | 
C=C(CO)C(O)(Cn1cncn1)c1ccc(Br)cc1 (stereo not shown) [Example 451] | 16 | 100 | 72 | 0 | 0 | 0 | 0 | 0 | 0 | 0 | 0 | 0 | 12.5 (≈ 38.6 µM) |  | 0 |  |  | 
C=C(c1cc(Cl)cc(Cl)c1)C(O)(Cn1cncn1)c1ccc(F)cc1F (stereo not shown) [Example 815] | 40 | 98 | 0 | 62 | 2 | 97 | 0 | 65 | 0 | 0 | 0 | 0 | 0.03 (≈ 0.0757 µM) | > 100 |  |  |  | 
C=C(CN(C)C)C(O)(Cn1cncn1)c1ccc(-c2ccccc2)cc1 (stereo not shown) [Example 456] | 82 | 0 | 58 | 53 | 98 | 96 | 9 | 0 | 0 | 0 | 0 | 0 |  |  | 0 |  |  | 
C=C(CN(C)C)C(O)(Cn1cncn1)c1ccc(Br)cc1 (stereo not shown) [Example 455] | 64 | 65 | 0 | 12 | 0 | 43 | 0 | 0 | 0 | 0 | 0 | 0 | 25 (≈ 71.2 µM) |  | 0 |  |  | 
C=C(c1ccccc1)C(O)(Cn1cncn1)c1cc(Cl)cc(Cl)c1 (stereo not shown) [Example 603] | 44 | 97 | 91 | 69 | 0 | 95 | 0 | 0 | 0 | 0 | 0 | 0 | 0.1 (≈ 0.278 µM) | > 100 |  | 10 | 0 | 0
C=C(CO)C(O)(Cn1cncn1)c1ccc(Cl)cc1Cl (stereo not shown) [Example 449] | 71 | 0 | 24 | 0 | 76 | 30 | 0 | 51 | 0 | 0 | 0 | 0 | ≤ 0.4 |  | 13 |  |  | 
C=C(c1ccccc1)C(O)(Cn1cncn1)c1ccccc1F (stereo not shown) [Example 594] | 86 | 100 | 93 | 77 | 2 | 100 | 0 | 79 | 0 | 60 | 100 | 50 | 0.8 (≈ 2.59 µM) | 0.8 (≈ 2.59 µM) |  | 70 | 10 | 0
N#CC[S+]([O-])c1ncnn1CC(O)(c1ccccc1F)C1(c2ccc(F)cc2)CO1 (stereo not shown) [Example 1468] | 40 | 0 | 0 | 77 | 2 | 93 | 0 | 46 | 0 | 60 | 0 | 0 |  |  |  |  |  | 
